Experiment: Degradation studies with human plasma (20% human serum)
Assay type: in vitro ADME
Details: 20% human serum (from human male AB plasma) in water, 37 °C, glycopeptide 0.5 mg·mL-1, sampled every hour, UPLC-micrOTOF-Q
Source text: We examined then the stability of the unnatural MUC1 derivative in human plasma. To this end, we synthesized glycopeptides APDThr(α-D-GalNAc)RP and APDMeSer(α-D-GalNAc)RP (ESI ^†). The degradation of the glycopeptide containing threonine was faster (around 1.8-fold) compared to the unnatural compound. […]
an r−6 averaging. The equilibrium distance range was set to rexp − 0.2 Å ≤ rexp ≤ rexp + 0.2 Å.
Trajectories were run at 298 K, with a decay constant of 2000 ps and a time step of 1 fs.
The force constants rk2 and rk3 used in each case were 10 kcal·mol−1·Å−2. The overall simulation length for the simulations was 20 ns. The coordinates were saved each 1 ps, thus, obtaining MD trajectories of 20000 frames each. A convergence within the equilibrium distance range was obtained in the simulations. The analysis of the MD-tar trajectories has been carried out with the cpptraj modules of AMBER 12.
Degradation studies with human plasma.
Commercially available serum from human male AB plasma was used. […] Degradation of the peptides was determined every hour by using UPLC-micrOTOF-Q (column: ACQUITY UPLC BEH C18 1,7; diameter: 2.1 mm and length: 100 mm), eluting a mixture of 5 µL of the glycopeptide-serum solution in 795 µL of water and employing an isocratic method (70% H2O, 30% acetonitrile, temperature: […]

degradation, faster compared to the unnatural compound APDMeSer(α-D-GalNAc)RP: around 1.8 fold
SMILES: CC(=O)N[C@H]1[C@@H](O[C@H](C)[C@H](NC(=O)[C@H](CC(=O)O)NC(=O)[C@@H]2CCCN2C(=O)[C@H](C)N)C(=O)N[C@@H](CCCNC(=N)N)C(=O)N2CCC[C@H]2C(N)=O)O[C@H](CO)[C@H](O)[C@@H]1O [APDThr(α-D-GalNAc)RP]

From article PMC5977504, “Mucin architecture behind the immune response: design, evaluation and conformational analysis of an antitumor vaccine derived from an unnatural MUC1 fragment” (Chemical Science, 2015)
